In patent US20240043470A1, “MACROCYCLIC COMPOUNDS AS PROTEASOME INHIBITORS” (CORNELL UNIVERSITY, priority 2017, published 2024):

molecular target: β5c of hu c-20S (Homo sapiens (Human), UniProt P20618+P28074); test: IC50 determination against β5c of human constitutive proteasome (suc-LLVY-AMC hydrolysis); assay type: biochemical; conditions: 0.2 nM c-20S, 25 μM suc-LLVY-AMC;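 also: IC50 obtained by fitting initial reaction velocities to a dose-dependent inhibition model, with SDS present as proteasome activator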

IC50 | SMILES
0.55 µM | CCN(CC)[C@H]1Cc2cccc(c2)Oc2cccc(c2)C[C@@H](C(=O)NCc2cnn(C)c2)NC(=O)[C@H](CCc2ccccc2)NC1=O [Compound 1-02]
1 µM | CN1CCC(C(=O)N[C@H]2Cc3cccc(c3)Oc3cccc(c3)C[C@@H](C(=O)NCc3cnn(C)c3)NC(=O)[C@H](CCc3ccccc3)NC2=O)CC1 [Compound 1-03, (5S,8S,11S)—N-((1-Methyl-1H-pyrazol-4-yl)methyl)-11-(1-methylpiperidine-4-carboxamido)-7,10-dioxo-8-phenethyl-2-oxa-6,9-diaza-1,3(1,3)-dibenzenacyclododecaphane-5-carboxamide]
0.542 µM | COC(=O)N[C@H]1Cc2cccc(c2)Oc2cccc(c2)C[C@@H](C(=O)NCC2CC2)NC(=O)[C@H](CCc2ccccc2)NC1=O [Compound 1-06]
1.12 µM | CCC(=O)N[C@H]1Cc2cccc(c2)Oc2cccc(c2)C[C@@H](C(=O)NCC2CC2)NC(=O)[C@H](CCc2ccccc2)NC1=O [Compound 1-07]
1.78 µM | CS(=O)(=O)N[C@H]1Cc2cccc(c2)Oc2cccc(c2)C[C@@H](C(=O)NCC2CC2)NC(=O)[C@H](CCc2ccccc2)NC1=O [Compound 1-08]
0.503 µM | CCCN(CCC)[C@H]1Cc2cccc(c2)Oc2cccc(c2)C[C@@H](C(=O)NCc2ccccc2)NC(=O)[C@H](CCc2ccccc2)NC1=O [Compound 1-09]
1.3 µM | CC1CCCN1[C@H]1Cc2cccc(c2)Oc2cccc(c2)C[C@@H](C(=O)NCc2ccccc2)NC(=O)[C@H](CCc2ccccc2)NC1=O (stereo partly drawn) [Compound 1-10]
1.93 µM | O=C(CO)N[C@H]1Cc2cccc(c2)Oc2cccc(c2)C[C@@H](C(=O)NCc2ccccc2)NC(=O)[C@H](CCc2ccccc2)NC1=O [Compound 1-11]
3.2 µM | O=C(N[C@H]1Cc2cccc(c2)Oc2cccc(c2)C[C@@H](C(=O)NCc2ccccc2)NC(=O)[C@H](CCc2ccccc2)NC1=O)c1ccccn1 [Compound 1-12]
3.52 µM | Cn1cnc(C(=O)N[C@H]2Cc3cccc(c3)Oc3cccc(c3)C[C@@H](C(=O)NCc3ccccc3)NC(=O)[C@H](CCc3ccccc3)NC2=O)c1 [Compound 1-13]
4.01 µM | CCC(=O)N[C@H]1Cc2cccc(c2)Oc2cccc(c2)C[C@@H](C(=O)NCc2ccccc2)NC(=O)[C@H](CCc2ccccc2)NC1=O [Compound 1-14]
100 µM | O=C(N[C@H]1Cc2cccc(c2)Oc2cccc(c2)C[C@@H](C(=O)NCc2ccccc2)NC(=O)[C@H](CCc2ccccc2)NC1=O)c1ccccc1 [Compound 1-15]
0.572 µM | O=C(NC1CCCC1)[C@@H]1Cc2cccc(c2)Oc2cccc(c2)C[C@H](N2CCCC2)C(=O)N[C@@H](CCc2ccccc2)C(=O)N1 [Compound 1-18]
2.8 µM | CCC(=O)N[C@H]1Cc2cccc(c2)Oc2cccc(c2)C[C@@H](C(=O)NC2CCCC2)NC(=O)[C@H](CCc2ccccc2)NC1=O [Compound 1-19]
3.25 µM | O=C(CO)N[C@H]1Cc2cccc(c2)Oc2cccc(c2)C[C@@H](C(=O)NC2CCCC2)NC(=O)[C@H](CCc2ccccc2)NC1=O [Compound 1-20]
3.4 µM | CCCN(CCC)[C@H]1Cc2cccc(c2)Oc2cccc(c2)C[C@@H](C(=O)NC2CCCC2)NC(=O)[C@H](CCc2ccccc2)NC1=O [Compound 1-21]
41.6 µM | CCN(CC)[C@H]1Cc2cccc(c2)Oc2cccc(c2)C[C@@H](C(=O)NC2CCCC2)NC(=O)[C@H](CCc2ccccc2)NC1=O [Compound 1-22]
6.21 µM | O=C(N[C@H]1Cc2cccc(c2)Oc2cccc(c2)C[C@@H](C(=O)NC2CCCC2)NC(=O)[C@H](CCc2ccccc2)NC1=O)c1ccccc1 [Compound 1-23]

IC50 | SMILES
100 µM | CCN[C@H]1Cc2cccc(c2)Oc2cccc(c2)C[C@@H](C(=O)NC2CCCC2)NC(=O)[C@H](CCc2ccccc2)NC1=O [Compound 1-24, (5S,8S,11S)—N-Cyclopentyl-11-(methylamino)-7,10-dioxo-8-phenethyl-2-oxa-6,9-diaza-1,3(1,3)-dibenzenacyclododecaphane-5-carboxamide]
1.63 µM | CCN(CC)[C@H]1Cc2cccc(c2)Oc2cccc(c2)C[C@@H](C(=O)NC(C)C)NC(=O)[C@H](CCc2ccccc2)NC1=O [Compound 1-25]
6.93 µM | CC(C)NC(=O)[C@@H]1Cc2cccc(c2)Oc2cccc(c2)C[C@H](NC(=O)c2ccccc2)C(=O)N[C@@H](CCc2ccccc2)C(=O)N1 [Compound 1-26]
1.14 µM | CCNC(=O)[C@@H]1Cc2cccc(c2)Oc2cccc(c2)C[C@H](N(CC)CC)C(=O)N[C@@H](CCc2ccccc2)C(=O)N1 [Compound 1-27]
2.47 µM | CCNC(=O)[C@@H]1Cc2cccc(c2)Oc2cccc(c2)C[C@H](N2CCCCC2)C(=O)N[C@@H](CCc2ccccc2)C(=O)N1 [Compound 1-28]
2.2 µM | CCN(CC)[C@H]1Cc2cccc(c2)Oc2cccc(c2)C[C@@H](C(=O)NCC(C)C)NC(=O)[C@H](CCc2ccccc2)NC1=O [Compound 1-29]
4.21 µM | CCC(=O)N[C@H]1Cc2cccc(c2)Oc2cccc(c2)C[C@@H](C(=O)NCC(C)C)NC(=O)[C@H](CCc2ccccc2)NC1=O [Compound 1-30]
5 µM | CC(C)CNC(=O)[C@@H]1Cc2cccc(c2)Oc2cccc(c2)C[C@H](NC(=O)c2ccccc2)C(=O)N[C@@H](CCc2ccccc2)C(=O)N1 [Compound 1-31]
8.86 µM | CC(C)CNC(=O)[C@@H]1Cc2cccc(c2)Oc2cccc(c2)C[C@H](NC(=O)c2cn(C)cn2)C(=O)N[C@@H](CCc2ccccc2)C(=O)N1 [Compound 1-32]
2.25 µM | COCCC(=O)N[C@H]1Cc2cccc(c2)Oc2cccc(c2)C[C@@H](C(=O)NCc2cccnc2)NC(=O)[C@H](CCc2ccccc2)NC1=O [Compound 1-33]
2.85 µM | COCCNC(=O)[C@@H]1Cc2cccc(c2)Oc2cccc(c2)C[C@H](NC(=O)c2cccnc2)C(=O)N[C@@H](CCc2ccccc2)C(=O)N1 [Compound 1-34]
3 µM | CS(=O)(=O)N[C@H]1Cc2cccc(c2)Oc2cccc(c2)C[C@@H](C(N)=O)NC(=O)[C@H](CCc2ccccc2)NC1=O [Compound 1-35]
3.04 µM | CCN(CC)C(=O)[C@@H]1Cc2cccc(c2)Oc2cccc(c2)C[C@H](NC(=O)c2ccncc2)C(=O)N[C@@H](CCc2ccccc2)C(=O)N1 [Compound 1-36]
4.29 µM | Cc1nn(C)cc1CNC(=O)[C@@H]1Cc2cccc(c2)Oc2cccc(c2)C[C@H](NS(C)(=O)=O)C(=O)N[C@@H](CCc2ccccc2)C(=O)N1 [Compound 1-38]
4.57 µM | CN(C)CCC(=O)N[C@H]1Cc2cccc(c2)Oc2cccc(c2)C[C@@H](C(=O)NCC2CCCCN2C)NC(=O)[C@H](CCc2ccccc2)NC1=O (stereo partly drawn) [Compound 1-39]
5.7 µM | O=C(N[C@H]1Cc2cccc(c2)Oc2cccc(c2)C[C@@H](C(=O)NCCC(F)(F)F)NC(=O)[C@H](CCc2ccccc2)NC1=O)c1ccccc1 [Compound 1-41]
5.93 µM | CCC(=O)N[C@H]1Cc2cccc(c2)Oc2cccc(c2)C[C@@H](c2nc3ccccc3o2)NC(=O)[C@H](CCc2ccccc2)NC1=O [Compound 1-42]

SMILES | IC50
Cn1cc(CNC(=O)[C@@H]2Cc3cccc(c3)Oc3cccc(c3)C[C@H](N3CCCCC3)C(=O)N[C@@H](CCc3ccccc3)C(=O)N2)cn1 [Compound 1-01, (5S,8S,11S)—N-((1-Methyl-1H-pyrazol-4-yl)methyl)-7,10-dioxo-8-phenethyl-11-(piperidin-1-yl)-2-oxa-6,9-diaza-1,3(1,3)-dibenzenacyclododecaphane-5-carboxamide] | 0.402 µM
